Laboratory results: patent US20150057447A1, “METHOD OF PRODUCING N-PHENYL-N'-PHENYLSULFONYL PIPERAZINE DERIVATIVE AND INTERMEDIATE THEREOF” (priority 2012, published 2015)

Tests used:
Format in all cases: physicochemical
[1] = Evaluation of sublimation by measuring TG/DTA; conditions: for sublimation (conclusion from TG/DTA): open system
Procedure: Evaluation of Sublimation by Measuring TG/DTA
(1) 5-Chloro-2-(1,3-oxazole-2-yl)phenol (I-3, 5 mg) which was obtained from the method described in Patent Document 6 was measured, and an aluminum pan was stuffed with it and measured in the open system. The measurement conditions are as follows.
Device: TG/DTA 7200 by SII nano technology Measurement temperature range: 30° C.-200° C. Heating rate: 10° C./minute Purge gas: N2 200 mL/minute
(2) 5-Chloro-2-(1,3-oxazole-2-yl)phenol (I-3, about 10 mg) which was obtained from the method described in Patent Document 6 was measured, and an aluminum pan was stuffed with it and measured in the open system. The measurement conditions are as follows.
Device: TG/DTA 7200 by SII nano technology Measurement temperature, range: 40° C. Measurement time: 720 minutes Purge gas: N2 200 mL/minute
(3) Magnesium bis[5-chloro-2-(1,3-oxazole-2-yl)phenolate (I-2, 5 m g) which was obtained from Example 1(1) was measured, and an aluminum pan was stuffed with it and measured in the open system. The measurement conditions are as follows.
Device: TG/DTA 7200 by SII nano technology Measurement temperature program: 30° C.-200° C. Rate of temperature increase: 10° C./minute Purge gas: N2 200 mL/minute

[2] = Evaluation of sublimation (heating under reduced pressure, flask with condenser tube)
Procedure: 5-Chloro-2-(1,3-oxazole-2-yl)phenol (I-3, 3.01 g, 15.4 mmol) which was obtained from the method described in Patent Document 6 was measured in a round-bottomed flask with condenser tube filled with −15° C. cooling liquid, and heated at 40° C. for 6 hours under the reduced pressure (16˜18 mmHg). After 6 hours, 0.02 g of colorless solids were adhered to the condenser tube. The colorless solids were measured by ^1H-NMR (DMSO-d6), it was confirmed to be 5-chloro-2-(1,3-oxazole-2-yl)phenol (I-3).

[3] = Evaluation of hygroscopicity by measuring moisture adsorption-desorption isotherm; conditions: 25° C.; for ratio of mass increase, moisture desorption isotherm: 0% RH; for ratio of mass increase relative to the mass at 0% RH, moisture adsorption isotherm: 95% RH
From the text: Moisture adsorption-desorption isotherm is one of means for measuring the adsorption or desorption of moisture. It is a method of measuring the mass change as a function of the relative humidity at constant temperature, and under the conditions where adsorption or desorption is essentially occurring independently of time (equilibrium conditions). Moisture adsorption-desorption isotherm is obtained by plotting relative humidities versus the ratio(%) of the mass increase compared to the mass when the relative humidity of 0%. Accordingly, it is possible to obtain the information about hygroscopicity or dehumidifying nature of the sample.
Moisture adsorption-desorption isotherm of the compounds specified in following (1) to (4) obtained from corresponding examples were measured by the following conditions.
(Operating Method) About 50 mg of the sample was weighted in the mesh stainless-steel sample container, then it was dried at the relative humidity (hereinafter, RH) 0% until the mass change doesn't happen in the device. Temperature and humidity were controlled by the following conditions, and dynamic gravimetric measurement was conducted. Measurement temperature: 25° C. Measurement humidity range: adsorption 0˜95% RH, desorption 95˜0% RH, 5% RH interval Measurement condition: Isotherm condition Herein, isotherm condition means that measurement is move on to next humidity point when the mass change is no longer observed after minimum waiting time or when the equilibrium of mass was not observed until maximum waiting time under constant humidity. The minimum waiting time for equilibrium determination at each humidity: 10 minutes The maximum waiting time for equilibrium determination at each humidity: 2 hours Humidity control: nitrogen and humidification device, 250 mL/minutes (1) Result of the moisture adsorption-desorption isotherm for magnesium bis[5-chloro-2-(1,3-oxazole-2-yl)phenolate] In measuring the moisture adsorption isotherm, in the case of 95% RH, the ratio of mass increase was 2% relative to the mass at 0% RH. In measuring the moisture desorption isotherm, in the case of 0% RH, the ratio of mass increase was 0%. (2) Result of the moisture adsorption-desorption isotherm for calcium bis[5-chloro-2-(1,3-oxazole-2-yl)phenolate] In measuring the moisture adsorption isotherm, in the case of 95% RH, the ratio of mass increase was 3% relative to the mass at 0% RH. In measuring the moisture desorption isotherm, in the case of 0% RH, the ratio of mass increase was 0%.

Row | weight loss (TG/DTA, constant temperature) ([1]; 40° C., 720 minutes, solid state, open aluminum pan, N2 200 mL/minute) [%] | weight loss (TG/DTA) ([1]; observed at 40-85° C., range 30° C.-200° C., heating rate 10° C./minute, open aluminum pan, N2 200 mL/minute) [%] | colorless solids adhered to the condenser tube ([2]; 3.01 g heated at 40° C. for 6 hours under reduced pressure (16~18 mmHg), condenser at -15° C.) [g] | sublimation (conclusion from reduced pressure heating test) ([2]; 40° C., 6 hours, 16~18 mmHg) | Compound | sublimation (conclusion from TG/DTA) [1] | ratio of mass increase, moisture desorption isotherm [3] [%] | ratio of mass increase relative to the mass at 0% RH, moisture adsorption isotherm [3] [%] | melting and weight loss (TG/DTA) ([1]; about 30° C.-about 180° C., program 30° C.-200° C., 10° C./minute, N2 200 mL/minute)
1 | 1.6 | 0.38 | 0.02 | has sublimation | Oc1cc(Cl)ccc1-c1ncco1 [Compound I-3, 5-chloro-2-(1,3-oxazole-2-yl)phenol] | has sublimation |  |  | 
2 |  |  |  |  | calcium bis[5-chloro-2-(1,3-oxazole-2-yl)phenolate] [Compound I-7] |  | 0 | 3 | 
3 |  |  |  |  | magnesium bis[5-chloro-2-(1,3-oxazole-2-yl)phenolate] [Compound I-2] | doesn't have sublimation | 0 | 2 | not observed
